Test results taken from publication PMC9712021 (Advances in Pharmacological and Pharmaceutical Sciences, 2022).

Experiments:
[1] = system: Artemia salina; test: Artemia salina bioassay (brine shrimp lethality bioassay)
Procedure: This test was carried out with a slight modification, as described by Amaral et al.. Briefly, shrimp cysts were incubated in a small aquarium containing a brine solution (50 mg of cysts and 300 mL of brine) for 48 h with direct lighting. […] […] In the negative (NC) and positive (PC) control groups, saline solution and potassium dichromate (K2Cr2O7) were added, respectively. The concentration range used in the case of the PC group was 31.25 to 500 μg/mL.

[2] = system: S. cerevisiae EG133 (Sod1∆Sod2∆); test: S. cerevisiae central disc test, oxidative damage, strain Sod1∆Sod2∆; assay type: cell-based, Saccharomyces cerevisiae
From the text: (§1) The central disc test was done according to the method presented by Islam et al.. Superoxide dismutase (CuZnSOD-Sod1) is a cytosolic enzyme that is faulty in strain EG118, whereas mitochondrial SOD is faulty in strain EG110 (MnSOD-Sod2). The strain EG133 has both Sod1 and Sod2 defects, while EG223 has a cytosolic catalase deficiency (Cat1). While EG103 is a competent strain that is identical to the wild-type (SODWT), EG is a dual isogenic strain for the Sod1 and Cat1 genes.

[3] = system: S. cerevisiae strains (SODWT, Sod1Δ, Sod2Δ, Cat1Δ, Sod1/Sod2Δ, Cat1Δ/Sod1Δ); test: In vivo antioxidant (S. cerevisiae) test, all strains tested; assay type: cell-based, Saccharomyces cerevisiae
From the text: as §1

[4] = system: S. cerevisiae EG118 (Sod1∆); test: S. cerevisiae central disc test, oxidative damage, strain Sod1∆; assay type: cell-based, Saccharomyces cerevisiae
From the text: as §1

[5] = system: mouse erythrocytes; test: Hemolytic activity in mice erythrocytes; assay type: cell-based
Procedure: (§2) This test was performed on adult Swiss albino mouse (Mus musculus) erythrocytes. The mouse was collected from the Central Animal House of the Federal University of Piaui, Brazil. It was allowed free access to standard food and water ad libitum and was kept under controlled lighting (12 h dark/light cycles) at 24 ± 2°C. Blood was collected from the retro-orbital plexus of the mouse (male, 24 gm body weight). Hemolytic activity in mouse erythrocytes was performed, according to Jamialahmadi et al..

[6] = Hemolytic activity in mice erythrocytes; assay type: cell-based, Mus musculus; settings: male, Swiss albino, mouse, mouse erythrocyte suspension, 37°C, 2 h
Procedure: as §2

[7] = system: S. cerevisiae EG110 (Sod2∆); test: S. cerevisiae central disc test, oxidative damage, strain Sod2∆; assay type: cell-based, Saccharomyces cerevisiae
From the text: as §1

[8] = system: S. cerevisiae EG (Sod1∆Cat1∆); test: S. cerevisiae central disc test, oxidative damage, strain Sod1∆Cat1∆; assay type: cell-based, Saccharomyces cerevisiae
From the text: as §1

[9] = system: S. cerevisiae EG223 (Cat1∆); test: S. cerevisiae central disc test, oxidative damage, strain Cat1∆; assay type: cell-based, Saccharomyces cerevisiae
From the text: as §1

[10] = system: S. cerevisiae EG103 (SODWT); test: S. cerevisiae central disc test, oxidative damage, strain SODWT; assay type: cell-based, Saccharomyces cerevisiae
From the text: as §1

CC(C)=CCC/C(C)=C\CO [Nerol, cis-3,7-dimethyl-2,6-octadien-1]
Artemia Salina mortality ([1]; 62.5 μg/mL, 48 h of exposure): 100% | cytotoxic effects in the A. Salina test ([1]; 31.25–500 μg/mL): significant cytotoxic effects | oxidative damage ([2]; 0.9 μg/mL): 2.00 ± 1.41 | oxidative damage ([2]; 1.8 μg/mL): 2.50 ± 0.70 | oxidative damage ([2]; 7.2 μg/mL): 3.00 ± 1.41 | oxidative damage ([2]; 14.4 μg/mL): 3.00 ± 0.54 | oxidative damage ([2]; 32 μg/mL): 4.50 ± 0.70 | oxidative damage ([2]; 64 μg/mL): 2.50 ± 0.70 | oxidative damage ([2]; 128 μg/mL): 3.00 ± 1.41 | oxidative damage ([2]; 3.6 mg/mL): 2.50 ± 0.70 | oxidative damage ([2]; 256 mg/mL): 2.50 ± 0.70 | oxidative damage ([2]; 500 mg/mL): 2.50 ± 0.70 | percentage modulation of oxidative damage caused by the stressor H2O2 ([3]; all strains and concentrations tested): more than 60% | induction of oxidative damage ([3]; any concentration, any of the tested S. cerevisiae strains): did not induce oxidative damage | oxidative damage ([4]; 0.9 μg/mL): 1.50 ± 0.70 | oxidative damage ([4]; 1.8 μg/mL): 2.00 ± 1.41 | oxidative damage ([4]; 7.2 μg/mL): 3.00 ± 1.41 | oxidative damage ([4]; 14.4 μg/mL): 2.50 ± 0.70 | oxidative damage ([4]; 32 μg/mL): 3.50 ± 0.70 | oxidative damage ([4]; 64 μg/mL): 1.50 ± 0.70 | oxidative damage ([4]; 128 μg/mL): 2.00 ± 1.41 | oxidative damage ([4]; 3.6 mg/mL): 2.50 ± 0.70 | oxidative damage ([4]; 256 mg/mL): 2.50 ± 0.70 | oxidative damage ([4]; 500 mg/mL): 2.00 ± 0.24 | Hemolysis (%) ([5]; 500 μg/mL, 37°C, 2 h): 34.95 ± 4.74^∗ % | cytotoxic effects in the hemolysis test ([5]; 31.25–500 μg/mL): significant cytotoxic effects | hemolysis at 2 h, 31.25 μg/mL ([6]; pH 7.4, 31.25 μg/mL): 2.67 ± 0.35% | hemolysis at 2 h, 62.5 μg/mL ([6]; pH 7.4, 62.5 μg/mL): 4.49 ± 0.26% | hemolysis at 2 h, 125 μg/mL ([6]; pH 7.4, 125 μg/mL): 5.12 ± 1.05% | hemolysis at 2 h, 250 μg/mL ([6]; pH 7.4, 250 μg/mL): 6.54 ± 1.78% | hemolysis at 2 h, 500 μg/mL ([6]; pH 7.4, 500 μg/mL): 39.1% | oxidative damage ([7]; 0.9 μg/mL): 1.00 ± 0.28 | oxidative damage ([7]; 1.8 μg/mL): 3.00 ± 1.41 | oxidative damage ([7]; 7.2 μg/mL): 3.00 ± 1.41 | oxidative damage ([7]; 14.4 μg/mL): 3.00 ± 1.41 | oxidative damage ([7]; 32 μg/mL): 1.50 ± 0.70 | oxidative damage ([7]; 64 μg/mL): 2.50 ± 0.70 | oxidative damage ([7]; 128 μg/mL): 2.50 ± 0.70 | oxidative damage ([7]; 3.6 mg/mL): 2.50 ± 0.70 | oxidative damage ([7]; 256 mg/mL): 2.00 ± 1.41 | oxidative damage ([7]; 500 mg/mL): 2.00 ± 0.24 | oxidative damage ([8]; 0.9 μg/mL): 2.50 ± 2.10 | oxidative damage ([8]; 1.8 μg/mL): 2.50 ± 0.70 | oxidative damage ([8]; 7.2 μg/mL): 3.00 ± 1.41 | oxidative damage ([8]; 14.4 μg/mL): 3.00 ± 1.41 | oxidative damage ([8]; 32 μg/mL): 3.50 ± 0.70 | oxidative damage ([8]; 64 μg/mL): 3.00 ± 1.41 | oxidative damage ([8]; 128 μg/mL): 2.50 ± 0.70 | oxidative damage ([8]; 256 μg/mL): 3.00 ± 1.41 | oxidative damage ([8]; 3.6 mg/mL): 3.00 ± 1.41 | oxidative damage ([8]; 500 mg/mL): 2.50 ± 0.70 | oxidative damage ([9]; 0.9 μg/mL): 1.50 ± 0.70 | oxidative damage ([9]; 1.8 μg/mL): 2.50 ± 0.70 | oxidative damage ([9]; 7.2 μg/mL): 2.50 ± 0.70 | oxidative damage ([9]; 14.4 μg/mL): 3.00 ± 0.54 | oxidative damage ([9]; 32 μg/mL): 3.50 ± 0.70 | oxidative damage ([9]; 64 μg/mL): 3.00 ± 1.41 | oxidative damage ([9]; 128 μg/mL): 3.00 ± 1.41 | oxidative damage ([9]; 3.6 mg/mL): 4.00 ± 1.2 | oxidative damage ([9]; 256 mg/mL): 1.50 ± 0.70 | oxidative damage ([9]; 500 mg/mL): 2.50 ± 0.70 | oxidative damage ([10]; 0.9 μg/mL): 1.50 ± 0.70 | oxidative damage ([10]; 1.8 μg/mL): 1.50 ± 0.70 | oxidative damage ([10]; 7.2 μg/mL): 2.00 ± 1.41 | oxidative damage ([10]; 14.4 μg/mL): 2.50 ± 0.70 | oxidative damage ([10]; 32 μg/mL): 2.00 ± 1.41 | oxidative damage ([10]; 64 μg/mL): 2.00 ± 1.41 | oxidative damage ([10]; 128 μg/mL): 1.00 ± 0.28 | oxidative damage ([10]; 3.6 mg/mL): 1.00 ± 0.28 | oxidative damage ([10]; 256 mg/mL): 2.00 ± 0.24 | oxidative damage ([10]; 500 mg/mL): 1.00 ± 0.28
